Experimental data: US20060069132A1, “Azolecarboxamide herbicides” (priority 2004, published 2006)

Legend:
rice [1] = experiment: Test C flooded paddy test; assay type: in vivo, Oryza sativa
Procedure, shortened: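 Plants were grown to the 1- to 4-leaf stage (2–18 cm) and then treated postemergence, or grown to the 2-leaf stage for the flooded paddy test. They were held in a greenhouse for 12 to 14 days and then scored by eye against controls, where 0 is no effect and 100 is complete control.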

barnyardgrass [2] = experiment: Test C flooded paddy test; assay type: in vivo, Echinochloa crus-galli
Procedure, shortened: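 Scoring by eye, 12–14 days post-treatment, greenhouse-held plants vs. controls; 0 no effect, 100 complete control. Sprayed at 1–4 leaves (2–18 cm); paddy barnyardgrass at 2 leaves, flooded.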

ducksalad [3] = experiment: Test B flooded paddy test; assay type: in vivo, Heteranthera limosa; settings: 1000 g ai/ha, scale 0 to 100 (0 no effect, 100 complete control)
Procedure, shortened: (§1)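 Postemergence plants were sprayed with formulated test chemicals at 2 to 18 cm height (1- to 4-leaf stage); paddy species were grown to the 2-leaf stage. After 13 to 15 days in a greenhouse, injury was rated visually against untreated controls on a 0–100 scale (0 = no effect, 100 = complete control).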

rice [4] = experiment: Test B flooded paddy test; assay type: in vivo, Oryza sativa; settings: 1000 g ai/ha, scale 0 to 100 (0 no effect, 100 complete control)
Procedure, shortened: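 Paddy species grown to the 2-leaf stage under flooding; blackgrass sprayed postemergence at 2–18 cm (1- to 4-leaf stage). Plants kept in a greenhouse for 13 to 15 days, then visually rated against controls on 0 (no effect) to 100 (complete control).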

pigweed = experiment: Test B pre-/postemergence herbicide test; assay type: in vivo, Amaranthus retroflexus; settings: for Pigweed plant response rating: postemergence
Procedure, shortened: (§2)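 Test chemicals in a non-phytotoxic solvent mixture with surfactant were applied preemergence to seeded species and postemergence to plants 2-18 cm tall (1- to 4-leaf stage); rice and barnyardgrass were also tested in a flooded paddy at the 2-leaf stage. Visual rating versus controls after 13-15 days in greenhouse, scale 0 (no effect) to 100 (complete control).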

wild oat = experiment: Test B postemergence herbicide test; assay type: in vivo, Avena fatua; settings: postemergence
Procedure, shortened: (§3)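 Scale 0–100: zero equals no visible effect, 100 complete control, judged by eye relative to controls. Timing: 13 to 15 days in greenhouse post-treatment. Growth stage at spraying: two leaves (paddy) or one to four leaves, 2–18 cm (postemergence).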

barnyardgrass [5] = experiment: Test B flooded paddy test; assay type: in vivo, Echinochloa crus-galli; settings: 1000 g ai/ha, scale 0 to 100 (0 no effect, 100 complete control)
Procedure, shortened: as §1

Surinam grass = experiment: Test B pre-/postemergence herbicide test; assay type: in vivo, Urochloa decumbens; settings: for Surinam Grass plant response rating: postemergence
Procedure, shortened: as §2

blackgrass = experiment: Test B postemergence herbicide test; assay type: in vivo, Alopecurus myosuroides; settings: postemergence
Procedure, shortened: as §1

cocklebur = experiment: Test B pre-/postemergence herbicide test; assay type: in vivo, Xanthium strumarium; settings: for Cocklebur plant response rating: postemergence
Procedure, shortened: (§4)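 Seeds were planted and treated preemergence with compounds formulated in a non-phytotoxic solvent mixture containing surfactant, while plants at the 1- to 4-leaf stage (2 to 18 cm) received postemergence sprays. Flooded paddy plants were grown to the 2-leaf stage. After 13 to 15 days in a greenhouse, injury was visually rated 0–100 against untreated controls.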

[6] = system: small flower umbrella sedge; experiment: Test B flooded paddy test; assay type: in vivo, Cyperus difformis; settings: 1000 g ai/ha, scale 0 to 100 (0 no effect, 100 complete control)
Procedure, shortened: as §1

giant foxtail = experiment: Test B pre-/postemergence herbicide test; assay type: in vivo, Setaria faberi; settings: for Foxtail, Giant plant response rating: postemergence
Procedure, shortened: as §2

barnyardgrass [7] = experiment: Test B pre-/postemergence herbicide test; assay type: in vivo, Echinochloa crus-galli; settings: for Barnyardgrass plant response rating: postemergence
Procedure, shortened: as §4

[8] = system: smallflower umbrella sedge; experiment: Test C flooded paddy test; assay type: in vivo, Cyperus difformis
ducksalad [9] = experiment: Test C flooded paddy test; assay type: in vivo, Heteranthera limosa
large crabgrass = experiment: Test B pre-/postemergence herbicide test; assay type: in vivo, Digitaria sanguinalis; settings: for Crabgrass, Large plant response rating: postemergence
Procedure, shortened: as §2

morningglory = experiment: Test B pre-/postemergence herbicide test; assay type: in vivo, Ipomoea coccinea; settings: for Morningglory plant response rating: postemergence
Procedure, shortened: as §4

wheat = experiment: Test B postemergence herbicide test; assay type: in vivo, Triticum aestivum; parameters: key to Wheat plant response rating: 0 = no effect, 100 = complete control; settings: postemergence
Procedure, shortened: as §3

lambsquarters = experiment: Test B pre-/postemergence herbicide test; assay type: in vivo, Chenopodium album; settings: for Lambsquarters plant response rating: postemergence
Procedure, shortened: as §2

velvetleaf = experiment: Test B pre-/postemergence herbicide test; assay type: in vivo, Abutilon theophrasti; settings: for Velvetleaf plant response rating: postemergence
Procedure, shortened: as §2

corn = experiment: Test B pre-/postemergence herbicide test; assay type: in vivo, Zea mays; settings: for Corn plant response rating: postemergence
Procedure, shortened: as §2

[10] = 125 g ai/ha, scale 0 to 100 (0 no effect, 100 complete control)
[11] = 250 g ai/ha, scale of 0 to 100, 0 is no effect, 100 is complete control
[12] = 500 g ai/ha, visual rating after 12 to 14 days, scale 0 to 100 (0 no effect, 100 complete control)
[13] = 125 g ai/ha, 0 is no effect, 100 is complete control, preemergence
[14] = 125 g ai/ha, visual rating, scale 0 (no effect) to 100 (complete control)
[15] = 500 g ai/ha, visual rating, 0 = no effect, 100 = complete control, preemergence
[16] = 500 g ai/ha, scale 0 to 100, 0 is no effect, 100 is complete control

## CCNC(=S)c1ccc(F)c(NC(=O)c2cc(C(C)(C)C)nn2CC)c1 [Compound 349]
Rice [1]; 62 g ai/ha, scale 0 to 100
  Rice plant response rating: 50
Rice [1]; [10]
  Rice plant response rating: 55
Rice [1]; [11]
  Rice plant response rating: 60
Rice [1]; [12]
  Plant response rating, Rice: 70
Barnyardgrass [2]; 62 g ai/ha, scale 0 to 100 (0 no effect, 100 complete control)
  Barnyardgrass plant response rating: 45
Barnyardgrass [2]; [10]
  Barnyardgrass plant response rating: 70
Barnyardgrass [2]; [11]
  Barnyardgrass plant response rating: 90
Barnyardgrass [2]; [12]
  Plant response rating, Barnyardgrass: 95
Ducksalad [3]
  Ducksalad plant response rating: 90
Rice [4]
  Rice plant response rating: 70
pigweed; [13]
  Plant response rating (0 to 100 scale), Pigweed: 100
pigweed; [14]
  Pigweed plant response rating: 0
pigweed; [15]
  Plant response rating, Pigweed: 100
pigweed; [16]
  Pigweed plant response rating: 70
Wild oat; [14]
  Oat, Wild plant response rating: 10
Wild oat; [16]
  Oat, Wild plant response rating: 40
Barnyardgrass [5]
  Barnyardgrass plant response rating: 80
Surinam grass; [13]
  Plant response rating (0 to 100 scale), Surinam Grass: 50
Surinam grass; [14]
  Surinam Grass plant response rating: 0
Surinam grass; [15]
  Plant response rating, Surinam Grass: 90
Surinam grass; [16]
  Surinam Grass plant response rating: 20
blackgrass; [14]
  Blackgrass plant response rating: 20
blackgrass; [16]
  Blackgrass plant response rating: 80
cocklebur; [13]
  Plant response rating (0 to 100 scale), Cocklebur: 0
cocklebur; [14]
  Cocklebur plant response rating: 0
cocklebur; [15]
  Plant response rating, Cocklebur: 80
cocklebur; [16]
  Cocklebur plant response rating: 20
[6]
  Sedge, Umbrella plant response rating: 80
Giant foxtail; [13]
  Plant response rating (0 to 100 scale), Foxtail, Giant: 70
Giant foxtail; [14]
  Foxtail, Giant plant response rating: 0
Giant foxtail; [15]
  Plant response rating, Foxtail, Giant: 100
Giant foxtail; [16]
  Foxtail, Giant plant response rating: 30
Barnyardgrass [7]; [13]
  Plant response rating (0 to 100 scale), Barnyardgrass: 80
Barnyardgrass [7]; [14]
  Barnyardgrass plant response rating: 0
Barnyardgrass [7]; [15]
  Plant response rating, Barnyardgrass: 100
Barnyardgrass [7]; [16]
  Barnyardgrass plant response rating: 10
[8]; 62 g ai/ha, scale 0 to 100
  Sedge, Umbrella plant response rating: 80
[8]; [10]
  Sedge, Umbrella plant response rating: 85
[8]; [11]
  Sedge, Umbrella plant response rating: 90
[8]; [12]
  Plant response rating, Sedge, Umbrella: 95
Ducksalad [9]; 62 g ai/ha, scale 0 to 100
  Ducksalad plant response rating: 80
Ducksalad [9]; [10]
  Ducksalad plant response rating: 85
Ducksalad [9]; [11]
  Ducksalad plant response rating: 85
Ducksalad [9]; [12]
  Plant response rating, Ducksalad: 95
Large crabgrass; [13]
  Plant response rating (0 to 100 scale), Crabgrass, Large: 100
Large crabgrass; [14]
  Crabgrass, Large plant response rating: 20
Large crabgrass; [15]
  Plant response rating, Crabgrass, Large: 100
Large crabgrass; [16]
  Crabgrass, Large plant response rating: 20
morningglory; [13]
  Plant response rating (0 to 100 scale), Morningglory: 0
morningglory; [14]
  Morningglory plant response rating: 0
morningglory; [15]
  Plant response rating, Morningglory: 30
morningglory; [16]
  Morningglory plant response rating: 50
wheat; [14]
  Wheat plant response rating: 0
wheat; [16]
  Wheat plant response rating: 10
lambsquarters; [13]
  Plant response rating (0 to 100 scale), Lambsquarters: 100
lambsquarters; [14]
  Lambsquarters plant response rating: 0
lambsquarters; [15]
  Plant response rating, Lambsquarters: 100
lambsquarters; [16]
  Lambsquarters plant response rating: 80
velvetleaf; [13]
  Plant response rating (0 to 100 scale), Velvetleaf: 30
velvetleaf; [14]
  Velvetleaf plant response rating: 0
velvetleaf; [16]
  Velvetleaf plant response rating: 40
corn; [13]
  Plant response rating (0 to 100 scale), Corn: 70
corn; [14]
  Corn plant response rating: 0
corn; [15]
  Plant response rating, Corn: 80
corn; [16]
  Corn plant response rating: 10
